Literature values as cited in paper PMC4110205 (Toxicology and applied pharmacology, 2014).

target: T1, hFMO2.1 (Homo sapiens, UniProt Q99518); conditions: expressed hFMO2; ref Henderson et al., 2004
T1 sequence (Q99518 1-535): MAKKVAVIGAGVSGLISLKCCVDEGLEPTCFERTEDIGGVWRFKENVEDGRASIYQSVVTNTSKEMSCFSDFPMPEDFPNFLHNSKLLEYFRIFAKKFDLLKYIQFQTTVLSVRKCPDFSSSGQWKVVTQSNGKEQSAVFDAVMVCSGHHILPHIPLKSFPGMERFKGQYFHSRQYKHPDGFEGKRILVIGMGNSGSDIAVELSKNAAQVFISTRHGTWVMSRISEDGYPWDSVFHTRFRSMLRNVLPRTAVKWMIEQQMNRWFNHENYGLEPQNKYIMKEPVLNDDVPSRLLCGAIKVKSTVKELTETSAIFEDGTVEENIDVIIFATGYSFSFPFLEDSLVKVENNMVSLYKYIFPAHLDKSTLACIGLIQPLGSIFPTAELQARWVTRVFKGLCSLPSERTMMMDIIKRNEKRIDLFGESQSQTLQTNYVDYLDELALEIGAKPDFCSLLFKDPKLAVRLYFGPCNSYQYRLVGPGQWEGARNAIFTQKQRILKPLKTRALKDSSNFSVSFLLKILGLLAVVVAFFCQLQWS

SMILES	Km [µM]	kcat [s⁻¹]
NC(=S)Nc1cccc2ccccc12 [α-naphthylthiourea]	42	0.55
NC(N)=S [Thiourea]	27	0.85
NC(=S)Nc1ccccc1 [phenylthiourea]	29	0.4
S=C1NCCN1 [ethylenethiourea]	14	0.8
